Experimental data reported in patent US7629310B2, “RhoB as a suppressor of cancer cell growth, cell transformation, and metastasis” (University of South Florida, priority 2000, dated 2009).

What was measured:
[1] = tested on: PANC-1 cells; experiment: Invasion through […]-coated transfilters, PANC-1 cells; assay type: cell-based, human; settings: PANC-1 cells (FIG. 9B)
Experimental: (§1) HRas/3T3 cells (FIG. 9A) and PANC-1 cells (FIG. 9B) were transiently transfected with pcDNA3 vector control, H-Ras61L, CA-Akt, or WT-Akt in the presence or absence of RhoA, RhoB, or pcDNA3 for 36 hours. The cells were then split and analyzed for their invading capabilities through […]-coated transfilters as described in the Materials and Methods section. PANC-1 and PC3 cells (FIG. 9C) were transiently transfected with pcDNA3, with H-Ras61L in the presence or absence of RhoA, or RhoB for 36 hours. The cells were then serum-starved for another 36 hours; the conditioned medium was collected and 20 μg protein were analyzed for MMP-2 expression by Western Blotting.
(§2) Whether RhoB can also antagonize cell invasion was evaluated. To this end, H-Ras/3T3 and PANC-1 cells were similarly transfected as above with various oncogenes along with RhoA or RhoB, then seeded onto […]-coated poly-hydrocarbonate filters mounted in the middle of a Boyden transwell apparatus as described under Methods. […] Furthermore, transfection with CA-Akt or WT-Akt enhanced invasion; and RhoB, not RhoA, inhibited this enhancement of invasion (FIGS. 9A and 9B).

[2] = tested on: H-Ras/3T3 cells; experiment: Invasion through […]-coated transfilters, H-Ras/3T3 cells; assay type: cell-based; settings: H-Ras/3T3 cells (FIG. 9A)
Experimental: as §1, §2

[3] = tested on: RhoB protein levels; experiment: RhoB protein level by Western blotting in NIH3T3 cells; assay type: cell-based; settings: NIH3T3, 5-FU for 36 hrs (FIG. 2C)
Experimental: NIH3T3 cells were transiently transfected with various oncogenes or pcDNA3 vector control and cultured for 36 hrs; the pcDNA3-transfected cells were treated by either DMSO or 5-FU for 36 hrs. The cells were then lysed and analyzed for transfection efficiency by Western blotting with anti-HA or anti-Src antibody and for RhoB protein level with anti-RhoB antibody. […] NIH3T3 cells were transiently transfected with various Ras oncogenes or pcDNA3 vector control for 12 hrs, then treated by either DMSO, or 5-FU for another 36 hrs. The whole cell lysates were analyzed for RhoB protein level by Western blotting with anti-RhoB antibody.
Western Blot Analysis. Whole cell lysates were prepared in a lysis buffer containing 20 mM Tris-HCl (pH 7.5), 150 mM NaCl, 1% NP-40, 1 mM phenylmethylsulfonyl fluoride, 1.5 μg each of aprotinin and leupeptin per ml, 10 mM NaF, 10 mM NaPPi, 3 mM sodium vanadate, and 15 mM lycerolphosphate. Lysates were incubated 30 min on ice and centrifuged at 13,000×g for 10 min at 4° C. prior to SDS-PAGE and Western blotting. 50 μg of lysates was loaded for each sample.

[4] = tested on: RhoB promoter; experiment: RhoB promoter transcriptional activity in H-Ras/3T3 cells; assay type: cell-based; settings: treated 12 hours (FIG. 6B)
From the text: The cell lysates were processed as in FIGS. 5A-5D. […] The cell lysates were processed as in FIGS. 5A-5D. […] The cell lysates were processed as in FIGS. 5A-5D. Gene Constructs and RhoB Promoter Transcriptional Activity Assay. Constitutively active H-Ras61L, K-RasV12, N-RasV12, and dominant negative […]-Ras were kind gifts from Dr. Channing Der (University of North Carolina) (Khosravi-Far, R. et al., Mol Cell Biol, 1995, 15:6443-53; Quilliam, L. A. et al., Mol Cell Biol, 1994, 14:1113-21). Wild-type RhoA and RhoB were subcloned into hemaglutinin (HA)-tagged pcDNA3 (INVITROGEN). The orientation and the sequences of these genes were confirmed by DNA sequencing facilities at the H. Lee Moffitt Cancer Center, Tampa, Fla. RhoB promoter construct pGEI was kindly provided by Dr Y. Monden (Banyu Tsukuba Research, Japan) (Nakamura et al., 1996). pCMV-β-galactosidase vector was purchased from INVITROGEN. The plasmid containing CA-, DN-PI3K, Mek and Akt were kindly provided by Dr. Julie Y. Djeu (H. Lee Moffitt Cancer and Research Institute, Tampa, Fla.) (Jiang, K. et al., Blood, 2003, 101:236-44). β-galactosidase activity and luciferase assay kits were purchased from PROMEGA Corporation, Madison, Wis. […] The RhoB promoter transcriptional activity was determined by dividing the luciferase/β-Gal values from oncogene-transfected cells by those from pcDNA3-transfected cells. […]

Compound | invasion through MATRIGEL [1] | invasion through MATRIGEL [2] | induction of RhoB protein levels [3] [fold] | induction of RhoB promoter activity [4]
RhoA: closely related family member sharing 86% sequence identity with RhoB; wild-type, in HA-tagged pcDNA3, transfected as control | invaded | invaded |  | 
O=c1[nH]cc(F)c(=O)[nH]1 [5-FU, 5-fluorouracil] |  |  | 3 | little effect
